Measured values as given in ChEMBL document CHEMBL4028802, “DILIrank: the largest reference drug list ranked by the risk for developing drug-induced liver injury in humans” (Drug Discov Today, 2016).

Columns and labels:
Homo sapiens [1] = species on record: Homo sapiens; experiment: Liver toxicity in human assessed as induction of drug-induced liver injury by measuring severity class index
Homo sapiens [2] = species on record: Homo sapiens; experiment: Liver toxicity in human assessed as induction of drug-induced liver injury by measuring verified drug-induced liver injury concern status
For DILI severity class in this document: key of the grades not given here.

Compound | DILI_severity_class (Homo sapiens [1]) | DILI_Concern (Homo sapiens [2])
C#C[C@@]1(OC(C)=O)CC[C@H]2[C@@H]3CCC4=CC(=O)CC[C@@H]4[C@H]3CC[C@@]21C | 0 | No-Dili-Concern
Nc1ncnc2c1ncn2[C@@H]1O[C@H](CO)[C@@H](O)[C@H]1O [ADENOSINE] | 0 | No-Dili-Concern
Cc1nc2n(c(=O)c1CCN1CCC(c3noc4cc(F)ccc34)CC1)CCCC2O (stereo unspecified) [PALIPERIDONE] | 0 | No-Dili-Concern
CC(c1cc2ccccc2s1)N(O)C(N)=O (stereo unspecified) [ZILEUTON] | 5 | Most-Dili-Concern
CCOC(=O)[C@H](CCc1ccccc1)N[C@@H](C)C(=O)N1Cc2ccccc2C[C@H]1C(=O)O | 3 | Less-Dili-Concern
C[C@H](CS)C(=O)N1CCC[C@H]1C(=O)O [CAPTOPRIL] | 7 | Less-Dili-Concern
CC1=C(C(=O)O)N2C(=O)[C@@H](NC(=O)[C@H](N)C3=CCC=CC3)[C@H]2SC1 [CEPHRADINE] | 4 | Ambiguous-Dili-Concern
CC(=O)Oc1ccccc1C(=O)O [ASPIRIN] | 0 | Less-Dili-Concern
Oc1ncnc2[nH]ncc12 [ALLOPURINOL] | 8 | Most-Dili-Concern
CCC[C@@H]1C[C@@H](C(=O)N[C@@H]([C@H]2O[C@H](SC)[C@H](O)[C@@H](O)[C@H]2O)[C@H](C)Cl)N(C)C1 [CLINDAMYCIN] | 3 | Less-Dili-Concern
Oc1ccc2c3c1O[C@H]1[C@@H](O)CC[C@@]4(O)[C@@H](C2)N(CC2CCC2)CC[C@]314 [NALBUPHINE] | 0 | No-Dili-Concern
CN(C)CCC(c1ccc(Cl)cc1)c1ccccn1 (stereo unspecified) [CHLORPHENIRAMINE] | 0 | No-Dili-Concern
CN1CCN(C(c2ccccc2)c2ccc(Cl)cc2)CC1 (stereo unspecified) [CHLORCYCLIZINE] | 0 | Less-Dili-Concern
Nc1cccc2c1CN(C1CCC(=O)NC1=O)C2=O (stereo unspecified) [LENALIDOMIDE] | 3 | Less-Dili-Concern
CN1CCC[C@@H]1CCO[C@](C)(c1ccccc1)c1ccc(Cl)cc1 [CLEMASTINE] | 0 | No-Dili-Concern
CC=CC1=C(C(=O)O)N2C(=O)[C@@H](NC(=O)[C@H](N)c3ccc(O)cc3)[C@H]2SC1 [CEFPROZIL] | 4 | Less-Dili-Concern
CCN(CC)CCCC(C)Nc1ccnc2cc(Cl)ccc12 (stereo unspecified) [CHLOROQUINE] | 3 | Less-Dili-Concern
CCCCC(=O)N(Cc1ccc(-c2ccccc2-c2nnn[nH]2)cc1)[C@H](C(=O)O)C(C)C | 3 | Less-Dili-Concern
CC(=O)O[C@H]1C[C@@H]2CC[C@@H]3[C@H](CC[C@@]4(C)[C@H]3C[C@H]([N+]3(C)CCCCC3)[C@@H]4OC(C)=O)[C@@]2(C)C[C@@H]1[N+]1(C)CCCCC1 [PANCURONIUM] | 0 | No-Dili-Concern
O=C(OCC(O)CO)c1ccccc1Nc1ccnc2cc(Cl)ccc12 (stereo unspecified) [GLAFENINE] | 8 | Most-Dili-Concern

Compound | DILI_severity_class (Homo sapiens [1]) | DILI_Concern (Homo sapiens [2])
CCCC1O[C@@H]2C[C@H]3[C@@H]4CCC5=CC(=O)C=C[C@]5(C)[C@H]4[C@@H](O)C[C@]3(C)[C@]2(C(=O)CO)O1 (stereo partly specified) [BUDESONIDE] | 0 | No-Dili-Concern
Nc1ncnc2c1ncn2CCOCP(=O)(O)O [ADEFOVIR] | 2 | Less-Dili-Concern
C=CCN1C[C@H](C(=O)N(CCCN(C)C)C(=O)NCC)C[C@@H]2c3cccc4[nH]cc(c34)C[C@H]21 [CABERGOLINE] | 0 | No-Dili-Concern
Cn1c(=O)c2[nH]cnc2n(C)c1=O.Cn1c(=O)c2[nH]cnc2n(C)c1=O.NCCN [AMINOPHYLLINE] | 0 | No-Dili-Concern
CCCN(CCC)CCc1cccc2c1CC(=O)N2 [ROPINIROLE] | 4 | Less-Dili-Concern
COc1ccccc1OCCNCC(O)COc1cccc2[nH]c3ccccc3c12 (stereo unspecified) [CARVEDILOL] | 3 | Less-Dili-Concern
Cc1nnc(C(C)C)n1[C@@H]1C[C@H]2CC[C@@H](C1)N2CC[C@H](NC(=O)C1CCC(F)(F)CC1)c1ccccc1 [MARAVIROC] | 3 | Most-Dili-Concern
CC[C@@H](C(N)=O)N1CCCC1=O | 8 | Less-Dili-Concern
CN1CCN(CCCN2c3ccccc3Sc3ccc(Cl)cc32)CC1 [PROCHLORPERAZINE] | 2 | Less-Dili-Concern
CCN(C(C)=O)c1cccc(-c2ccnc3c(C#N)cnn23)c1 [ZALEPLON] | 0 | No-Dili-Concern
CNC[C@H](O)[C@@H](O)[C@H](O)[C@H](O)CO.CNC[C@H](O)[C@@H](O)[C@H](O)[C@H](O)CO.O=C(CCCCC(=O)Nc1c(I)cc(I)c(C(=O)O)c1I)Nc1c(I)cc(I)c(C(=O)O)c1I [IODIPAMIDE MEGLUMINE] | 0 | No-Dili-Concern
CN(C)c1cc(NC(=O)CNC(C)(C)C)c(O)c2c1C[C@H]1C[C@H]3[C@H](N(C)C)C(O)=C(C(N)=O)C(=O)[C@@]3(O)C(O)=C1C2=O [TIGECYCLINE] | 8 | Ambiguous-Dili-Concern
N=C(N)NCCN1CCCCCCC1 [GUANETHIDINE] | 0 | No-Dili-Concern
Cc1nnc2n1-c1ccc(Cl)cc1C(c1ccccc1)=NC2 [ALPRAZOLAM] | 7 | Less-Dili-Concern
CC(C)C[C@H](NC(=O)[C@H](Cc1c[nH]c2ccccc12)NC(=O)[C@H](Cc1ccc(O)cc1)NC(=O)[C@H](CO)NC(=O)[C@H](Cc1c[nH]c2ccccc12)NC(=O)[C@H](Cc1c[nH]cn1)NC(=O)[C@@H]1CCC(=O)N1)C(=O)N[C@@H](CCCNC(=N)N)C(=O)N1CCC[C@H]1C(=O)NCC(N)=O.O=C(O)c1cc2ccccc2c(Cc2c(O)c(C(=O)O)cc3ccccc23)c1O | 3 | Less-Dili-Concern
Cc1ccnc2c1NC(=O)c1cccnc1N2C1CC1 [NEVIRAPINE] | 8 | Most-Dili-Concern
N[C@@H](C(=O)N[C@@H]1C(=O)N2C(C(=O)O)=C(Cl)CC[C@H]12)c1ccccc1 [LORACARBEF ANHYDROUS] | 3 | Less-Dili-Concern
CCC1=C[C@@H]2CN(C1)Cc1c([nH]c3ccccc13)[C@@](C(=O)OC)(c1cc3c(cc1OC)N(C)[C@H]1[C@@](O)(C(=O)OC)[C@H](OC(C)=O)[C@]4(CC)C=CCN5CC[C@]31[C@@H]54)C2 [VINORELBINE] | 3 | Ambiguous-Dili-Concern
CC(C)OC(=O)C(C)(C)Oc1ccc(C(=O)c2ccc(Cl)cc2)cc1 [FENOFIBRATE] | 3 | Less-Dili-Concern
Cc1cn[nH]c1 [FOMEPIZOLE] | 3 | Ambiguous-Dili-Concern

Compound | DILI_severity_class (Homo sapiens [1]) | DILI_Concern (Homo sapiens [2])
NC(=O)c1ncn([C@@H]2O[C@H](CO)[C@@H](O)[C@H]2O)n1 [RIBAVIRIN] | 7 | Ambiguous-Dili-Concern
O=C(COc1ccc(Cl)cc1)N1CCN(Cc2ccc3c(c2)OCO3)CC1 [FIPEXIDE] | 8 | Most-Dili-Concern
COc1ccnc(C[S+]([O-])c2nc3ccc(OC(F)F)cc3[nH]2)c1OC (stereo unspecified) [PANTOPRAZOLE] | 3 | Less-Dili-Concern
CC(=O)O.CC(C)[C@@H]1NC(=O)[C@H](CCCCN)NC(=O)[C@@H](Cc2c[nH]c3ccccc23)NC(=O)[C@H](Cc2ccc(O)cc2)NC(=O)[C@@H](NC(=O)[C@H](N)Cc2ccc3ccccc3c2)CSSC[C@@H](C(=O)N[C@H](C(N)=O)[C@@H](C)O)NC1=O [LANREOTIDE ACETATE] | 2 | Ambiguous-Dili-Concern
CS(=O)(=O)OCCCCOS(C)(=O)=O [BUSULFAN] | 8 | Most-Dili-Concern
Cc1cnc(C(=O)NCCc2ccc(S(=O)(=O)NC(=O)NC3CCCCC3)cc2)cn1 [GLIPIZIDE] | 3 | Less-Dili-Concern
Nc1ccn(C[C@@H](CO)OCP(=O)(O)O)c(=O)n1.O.O [CIDOFOVIR] | 5 | Ambiguous-Dili-Concern
Nc1cc(N2CCCCC2)nc(N)[n+]1[O-] [MINOXIDIL] | 0 | No-Dili-Concern
Cc1ccccc1C(=O)Nc1ccc(C(=O)N2CCCC(O)c3cc(Cl)ccc32)c(C)c1 (stereo unspecified) [TOLVAPTAN] | 8 | Most-Dili-Concern
Nc1nc2c(ncn2COCCO)c(=O)[nH]1 [ACYCLOVIR] | 5 | Less-Dili-Concern
O=c1[nH]cc(F)c(=O)[nH]1 [FLUOROURACIL] | 0 | Less-Dili-Concern
NCCC(O)(P(=O)(O)O)P(=O)(O)O [PAMIDRONIC ACID] | 3 | Ambiguous-Dili-Concern
O=C(O)COC(=O)Cc1ccccc1Nc1c(Cl)cccc1Cl [ACECLOFENAC] | 0 | Less-Dili-Concern
C=CCC1(C(C)CCC)C(=O)NC(=O)NC1=O (stereo unspecified) [SECOBARBITAL] | 3 | Ambiguous-Dili-Concern
CCCNCC(O)COc1ccccc1C(=O)CCc1ccccc1 (stereo unspecified) [PROPAFENONE] | 3 | Less-Dili-Concern
Cc1cccc([C@H](C)c2cnc[nH]2)c1C [DEXMEDETOMIDINE] | 4 | Ambiguous-Dili-Concern
CC(CN1c2ccccc2Sc2ccccc21)N(C)C (stereo unspecified) [PROMETHAZINE] | 5 | Less-Dili-Concern
CCc1oc2ccccc2c1C(=O)c1ccc(O)cc1 [BENZARONE] | 8 | Most-Dili-Concern
